# Test results as given in publication PMC7822874, “Chemoprotective antimalarials identified through quantitative high-throughput screening of Plasmodium blood and liver stage parasites” (Scientific Reports, 2021).
# Like-named read-outs stand apart in the source and are kept apart here.
# Experiments:
# [1] = test system: HepG2-A16-CD81EGFP cells; details: average of 2 wells, repeat 2; for HepG2 viability signal, 1 uM, repeat 2: nominal 1 uM (10 mM stock), […] for 15 mM, 1.2 uM for 12 mM, 2 uM for 20 mM stock; for HepG2 viability signal, 3 uM, repeat 2: nominal 3 uM (10 mM stock), 4.5 uM for 15 mM, 3.6 uM for 12 mM, 6 uM for 20 mM stock
# [2] = test system: P. berghei-ANKA-GFP-LucCON liver stage parasites in HepG2-A16-CD81EGFP cells; assay: P. berghei liver stage Pb-Luc assay, Method 1 (UCSD, 1536-well); format: cell-based, Plasmodium berghei; details: Plasmodium berghei, 48 h, average of 2 wells, 1536-well plate; for activity at 1 µM: nominal 1 uM (10 mM stock), […] for 15 mM, 1.2 uM for 12 mM, 2 uM for 20 mM stock; for activity at 3 µM: nominal 3 uM (10 mM stock), 4.5 uM for 15 mM, 3.6 uM for 12 mM, 6 uM for 20 mM stock; on all read-outs here: reference of the scale not given here
# [3] = test system: Plasmodium falciparum Dd2 asexual blood stage parasites; assay: microbe, parasite or virus in culture; set-up: species or system Plasmodium falciparum Dd2 in human erythrocytes; single determination (one 11-point concentration-response curve); details: Plasmodium falciparum, DD2, Erythrocyte, 72 h; read-out: AC50
# [4] = in vitro; details: human, HepG2-A16-CD81EGFP cells, uninfected
# [5] = repeat 1, read-out: Pb-Luc signal, 1 uM, repeat 1
# [6] = repeat 2, read-out: Pb-Luc signal, 1 uM, repeat 2
# [7] = repeat 3, read-out: Pb-Luc signal, 1 uM, repeat 3
# [8] = repeat 1, read-out: Pb-Luc signal, 3 uM, repeat 1
# [9] = repeat 2, read-out: Pb-Luc signal, 3 uM, repeat 2
# [10] = repeat 3, read-out: Pb-Luc signal, 3 uM, repeat 3
Structure (SMILES),"HepG2 viability signal, 1 uM, repeat 2 [1] [%]","HepG2 viability signal, 3 uM, repeat 2 [1] [%]","activity at 1 µM [2, 5] [%]","activity at 1 µM [2, 6] [%]","activity at 1 µM [2, 7] [%]","activity at 3 µM [2, 8] [%]","activity at 3 µM [2, 9] [%]","activity at 3 µM [2, 10] [%]",AC50 [3] [µM],"viability at 48 h, 1 µM [4] [%]","viability at 48 h, 3 µM [4] [%]"
CN1CCN(C(=O)c2ccc3c(c2)N(Cc2ccc(C(F)(F)F)cc2)C(=O)c2ccccc2S3)CC1 [NCGC00108242-01],102.88,103.88,104,123,103,91,99.2,92.4,0.531,99.8,101
CC1=C(C(=O)Nc2ccc(C)cc2C)C(c2ccc(Br)cc2)n2ncc(C(=O)Nc3cccc(C)c3)c2N1 (stereo not shown) [NCGC00126300-01],95.30,90.59,94.7,120,115,75.3,87.7,102,3.35,102,94.6
O[C@H]1CC[C@@H](Cc2cc(-c3ccc(F)cc3)on2)O[C@@H]1CNC1CCCCC1 [NCGC00401034-01],105.13,100.53,123,102,154,112,106,134,2.43,104,107
CC1=C(C(=O)Nc2ccc(C)cc2C)C(c2cc(Br)ccc2F)n2ncc(C(=O)Nc3ccc(C)cc3)c2N1 (stereo not shown) [NCGC00126328-01],98.10,99.55,99.2,113,121,61.3,103,73.4,1.5,100,107
Oc1ccccc1-c1cc(-c2cccnc2)c2cncn2c1 [NCGC00412170-01],95.01,100.05,103,117,108,100,122,76.4,1.72,98.3,101
O=C(Nc1ccc2c(N3CCCC3)ncnc2c1)c1cccc(F)c1 [NCGC00425501-01],97.92,95.12,97.2,101,106,56.8,72.2,29.3,4.73,98.5,94.4
COc1ccc(-c2noc(-c3cccn3CC(=O)Nc3ccccc3)n2)cc1F [NCGC00445500-01],98.82,102.85,155,167,187,187,192,169,2.37,103,105
CCN1CCN(C(=O)c2ccc3c(c2)N(Cc2ccccc2F)C(=O)c2ccccc2[S+]3[O-])CC1 (stereo not shown) [NCGC00109528-01],95.20,97.54,102,105,110,94.3,116,97.6,0.841,101,98.8
COC(=O)c1ccc2[nH]c(C[C@@H]3C[C@@H](C(C)C)[C@H](CNC4CCCCC4)C=C3C)nc2c1 [NCGC00401987-01],103.84,105.05,81.1,132,98.9,56.8,65,83.4,8.41,99.2,102
CCN1CCN(Cc2c(O)ccc3c(=O)c(Oc4ccccc4C(C)C)c(C(F)(F)F)oc23)CC1 [NCGC00100599-01],96.13,100.51,78.6,113,135,70,89.4,121,0.596,97.5,99.2
Cc1ccc2oc(=O)c3cnn(CC(=O)Nc4cccc(C(F)(F)F)c4)c3c2c1 [NCGC00110933-01],99.44,101.21,106,124,113,86.9,117,100,2.66,94,94.8
Cc1ccc(CN2COc3cc(C)c4c(oc(=O)c5ccccc54)c3C2)cc1 [NCGC00116336-01],104.57,104.67,94.2,106,96.8,71.6,78.2,92.4,1.33,101,105
Cn1nnnc1SCCCNCc1cccc(OCc2ccccc2)c1 [NCGC00117957-01],101.95,103.35,78.6,108,127,58.9,94,87.5,9.44,97.9,101
CCN1CCN(C(=O)c2ccc3c(c2)N(Cc2ccc(Cl)cc2)C(=O)c2ccccc2[S+]3[O-])CC1 (stereo not shown) [NCGC00109464-01],105.55,102.35,104,92.1,102,83.2,80.5,103,0.668,110,108
